Measured values as given in patent US7268146B2, “Ring fused pyrazole derivatives as CRF antagonists” (Palo Alto LLC, priority 2001, dated 2007).
Counter-ions that a name gives are not always drawn.

What was measured:
[1] = molecular target: T1, hCRF1 (Homo sapiens, UniProt P34998); assay: CRF Receptor Binding Assay; settings: CRF1 receptor binding affinity (table title); read-out: hCRF1 (pIC50) (converted)
T1 construct: Celll membranes are prepared according the method of Dieterich and DeSouza (1996); endogenous in cells; host or cells: human IMR-32 neuroblastoma cells (membrane preparation)
T1 sequence (P34998 24-415): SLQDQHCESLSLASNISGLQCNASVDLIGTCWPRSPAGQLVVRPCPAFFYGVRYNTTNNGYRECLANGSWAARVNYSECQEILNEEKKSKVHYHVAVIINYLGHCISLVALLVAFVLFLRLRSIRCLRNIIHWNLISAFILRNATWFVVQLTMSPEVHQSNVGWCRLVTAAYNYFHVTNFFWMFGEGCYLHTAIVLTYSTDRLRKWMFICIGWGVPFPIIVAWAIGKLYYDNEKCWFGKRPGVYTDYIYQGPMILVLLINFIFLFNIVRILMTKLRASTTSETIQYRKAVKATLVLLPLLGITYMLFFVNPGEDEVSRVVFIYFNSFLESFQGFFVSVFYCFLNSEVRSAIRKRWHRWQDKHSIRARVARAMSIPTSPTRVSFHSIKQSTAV
Method: Human IMR-32 neuroblastoma cells are grown to 80% confluence in MEM medium containing 10% heat-inactivated FBS, 1 mM Sodium Pyruvate, and 0.1 mM nonessential amino acids. Celll membranes are prepared according the method of Dieterich and DeSouza (1996). The cells (˜5E+9) are resuspended in 10 volumes of wash buffer (5 mM Tris HCl, 10 mM MgCl2, 2 mM EGTA, pH 7.4 at RT), homogenized with a Polytron, and then centrifuged at 45,000 G for 20 min at 4° C. The membrane pellets are washed twice with wash buffer (45,000 G for 20 min at 4° C.) and then resuspended (50 mM Tris HCl, 10 mM MgCl2, 2 mM EGTA, pH 7.4 at RT). Protein concentration is determined using Pierce reagents and BSA as standard. Aliquots of 1-1.5 ml are stored at −80° C. until binding assay.
The competition binding assay is performed in a final volume of 250 μl, which contains assay buffer (50 mM Tris-HCl, 10 mM MgCl2, 2 mM EGTA, 0.2% BSA, 0.1 mM bacitracin and 100 kIU/ml aprotinin pH 7.2 at R.T.), 0.05 nM [^125I]Tyr^0-ovine CRF (Du Pont New England Nuclear), 50 μg of membrane protein, and test compound at various concentrations. Non-specific binding is determined with 1 uM hCRF. Binding reactions are terminated after 2 hr incubation at 25° C. by filtering through 96-w GF/C filter plate using a Packard Harvester (Filtermate 196). The 96-w filter plate is pre-treated with 0.3% polyethyleneimine and pre-washed with washing buffer (50 mM Tris-HCl, 10 mM MgCl2, 2 mM EGTA, 0.2% BSA, pH 7.2 at 4° C.). Unbound radioactivity is removed by four rapid washes (0.8 ml/well) with wash buffer. The radioactivity is quantified using a Packard TopCount. Data are analyzed using non-linear iterative curve fitting to obtain IC50 and Hill slope values. PKi values are derived from pIC50 values (−log of IC50).

Compound	IC50 [1] [µM]	melting point [°C]
Cc1cc(C)c(N2CCCc3c2nn(C)c3Br)c(Cl)c1 [Example 1, 3-Bromo-7-(2-chloro-4,6-dimethylphenyl)-2-methyl-4,5,6,7-tetrahydro-2H-pyrazolo[3,4-b]pyridine]	1.07	106 to 107
CC/C=C(\CCC)c1c2c(nn1C)N(c1ccc(Cl)cc1Cl)CCC2 [Example 6e, 7-(2,4-Dichlorophenyl)-2-methyl-3-(1-propylbut-1-enyl)-4,5,6,7-tetrahydro-2H-pyrazolo[3,4-b]pyridine]	0.234	
CCCC(CCC)Oc1c2c(nn1C)N(c1ccc(Cl)cc1Cl)CCC2 [Example 12b, 7-(2,4-Dichlorophenyl)-2-methyl-3-(1-propylbutoxy)-4,5,6,7-tetrahydro-2H-pyrazolo[3,4-b]pyridinehydrochloride]	0.0275	

The next lines start with the values.

IC50 [1] [µM]	melting point [°C]	Compound
11.2	175.9 to 178.4	CCCC(O)(c1cccs1)c1c2c(nn1C)N(c1c(C)cc(C)cc1C)CCC2 (stereo not drawn) [Example 5c, 1-[2-Methyl-7-(2,4,6-trimethylphenyl)-4,5,6,7-tetrahydro-2H-pyrazolo[3,4-b]pyridin-3-yl]-1-thiophen-2-ylbutan-1-ol]
0.0871	91.5 to 92	CCCC(CCC)c1c2c(nn1C)N(c1c(C)cc(C)cc1C)CCC2 [Example 7b, 2-Methyl-3-(1-propylbutyl)-7-(2,4,6-trimethylphenyl)-4,5,6,7-tetrahydro-2H-pyrazolo[3,4-b]pyridine]
0.832		CCCN(Cc1ccco1)c1c2c(nn1C)N(c1c(C)cc(C)cc1Cl)CCC2 [Example 9c, [7-(2-Chloro-4,6-dimethyl-phenyl)-2-methyl-4,5,6,7-tetrahydro-2H-pyrazolo[3,4-b]pyridin-3-yl]-furan-2-ylmethyl-propyl-aminetrifluoroacetic acid salt]
12		Cc1cc(C)c(N2CCCc3c2nn(C)c3CN2CCc3ccccc3C2)c(C)c1 [Example 11, 2-[2-Methyl-7-(2,4,6-trimethyl-phenyl)-4,5,6,7-tetrahydro-2H-pyrazolo[3,4-b]pyridin-3-ylmethyl]-1,2,3,4-tetrahydroisoquinolinedihydrochloride]
0.776	59 to 63	Cc1cc(C)c(N2CCCc3c2nn(C)c3-c2ccccc2C(F)(F)F)c(C)c1 [Example 13a, 2-Methyl-3-(2-trifluoromethylphenyl)-7-(2,4,6-trimethylphenyl)-4,5,6,7-tetrahydro-2H-pyrazolo[3,4-b]pyridine]
